{
  "source": "ChEMBL document CHEMBL4680082",
  "about": "(J Med Chem, 2016)",
  "note": "Several values for one entry are separate records, joined by “and”; a condition that tells them apart may be missing. Equal entries are not always repeated.",
  "data": [
    {"biological_target": "T1, 5-hydroxytryptamine receptor 2B (Homo sapiens, UniProt P41595)", "T1 sequence (P41595 whole entry)": "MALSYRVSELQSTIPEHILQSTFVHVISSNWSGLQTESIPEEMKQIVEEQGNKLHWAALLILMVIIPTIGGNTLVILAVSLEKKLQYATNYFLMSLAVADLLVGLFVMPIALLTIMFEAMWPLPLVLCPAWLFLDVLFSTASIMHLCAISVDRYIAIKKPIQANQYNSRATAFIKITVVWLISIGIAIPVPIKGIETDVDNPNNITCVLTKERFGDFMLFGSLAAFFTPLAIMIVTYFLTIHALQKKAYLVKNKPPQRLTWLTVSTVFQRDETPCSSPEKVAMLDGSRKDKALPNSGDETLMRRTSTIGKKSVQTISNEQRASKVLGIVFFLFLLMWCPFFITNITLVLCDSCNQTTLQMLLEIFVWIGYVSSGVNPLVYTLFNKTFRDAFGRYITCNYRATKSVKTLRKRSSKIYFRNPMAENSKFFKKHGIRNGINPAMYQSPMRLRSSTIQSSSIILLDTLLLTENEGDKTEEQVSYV", "experiment": "(§1) Agonist activity at human 5-HT2B receptor expressed in human Flp-In-293 cells assessed as induction of calcium flux incubated for 1 hr by Fluo-4 direct dye based FLIPR assay relative to 5-HT", "assay_type": "functional, cell-based", "conditions": "not given", "units": {"Emax": "%"}, "values": [
      {"compound": "CC(C)Oc1ccc2occc2c1[C@H]1C[C@@H]1CN", "Emax": 39}
    ]},
    {"biological_target": "T1, 5-hydroxytryptamine receptor 2B", "experiment": "as §1", "assay_type": "functional, cell-based", "conditions": "filed as agonist", "units": {"Emax": "%"}, "values": [
      {"compound": "COc1ccc2occc2c1[C@H]1C[C@@H]1CN", "Emax": 64},
      {"compound": "COc1ccc2c(c1[C@@H]1C[C@H]1CN)CCO2", "Emax": 45},
      {"compound": "CCOc1ccc2c(c1[C@H]1C[C@@H]1CN)CCO2", "Emax": 58}
    ]},
    {"biological_target": "T2, 5-hydroxytryptamine receptor 2A (Homo sapiens, UniProt P28223)", "T2 sequence (P28223 whole entry)": "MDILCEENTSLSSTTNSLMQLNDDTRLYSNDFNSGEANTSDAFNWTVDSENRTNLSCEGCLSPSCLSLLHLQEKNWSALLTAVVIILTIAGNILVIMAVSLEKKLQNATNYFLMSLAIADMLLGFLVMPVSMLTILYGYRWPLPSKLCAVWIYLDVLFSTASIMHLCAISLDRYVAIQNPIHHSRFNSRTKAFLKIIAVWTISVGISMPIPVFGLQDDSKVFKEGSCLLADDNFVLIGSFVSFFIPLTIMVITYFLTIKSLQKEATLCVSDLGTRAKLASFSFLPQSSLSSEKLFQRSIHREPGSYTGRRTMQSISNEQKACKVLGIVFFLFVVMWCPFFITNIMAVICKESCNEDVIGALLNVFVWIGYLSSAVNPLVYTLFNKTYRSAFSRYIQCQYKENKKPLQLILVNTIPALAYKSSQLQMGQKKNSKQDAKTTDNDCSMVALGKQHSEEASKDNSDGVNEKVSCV", "experiment": "Agonist activity at human 5-HT2A receptor expressed in human Flp-In-293 cells assessed as induction of calcium flux incubated for 1 hr by Fluo-4 direct dye based FLIPR assay relative to 5-HT", "assay_type": "functional, cell-based", "conditions": "filed as agonist", "units": {"Emax": "%"}, "values": [
      {"compound": "COc1ccc2occc2c1[C@H]1C[C@@H]1CN", "Emax": 86},
      {"compound": "COc1ccc2c(c1[C@@H]1C[C@H]1CN)CCO2", "Emax": 66},
      {"compound": "CCOc1ccc2c(c1[C@H]1C[C@@H]1CN)CCO2", "Emax": 81},
      {"compound": "CC(C)Oc1ccc2occc2c1[C@H]1C[C@@H]1CN", "Emax": 79}
    ]},
    {"biological_target": "T2, 5-hydroxytryptamine receptor 2A", "conditions": "not given", "units": {"EC50": "µM"}, "values": [
      {"compound": "COc1ccc2occc2c1[C@H]1C[C@@H]1CN", "EC50": 0.037},
      {"compound": "COc1ccc2c(c1[C@@H]1C[C@H]1CN)CCO2", "EC50": 0.295},
      {"compound": "CCOc1ccc2c(c1[C@H]1C[C@@H]1CN)CCO2", "EC50": 0.113},
      {"compound": "CC(C)Oc1ccc2occc2c1[C@H]1C[C@@H]1CN", "EC50": 0.298}
    ]},
    {"biological_target": "T3, 5-hydroxytryptamine receptor 2C (Homo sapiens, UniProt P28335)", "T3 sequence (P28335 whole entry)": "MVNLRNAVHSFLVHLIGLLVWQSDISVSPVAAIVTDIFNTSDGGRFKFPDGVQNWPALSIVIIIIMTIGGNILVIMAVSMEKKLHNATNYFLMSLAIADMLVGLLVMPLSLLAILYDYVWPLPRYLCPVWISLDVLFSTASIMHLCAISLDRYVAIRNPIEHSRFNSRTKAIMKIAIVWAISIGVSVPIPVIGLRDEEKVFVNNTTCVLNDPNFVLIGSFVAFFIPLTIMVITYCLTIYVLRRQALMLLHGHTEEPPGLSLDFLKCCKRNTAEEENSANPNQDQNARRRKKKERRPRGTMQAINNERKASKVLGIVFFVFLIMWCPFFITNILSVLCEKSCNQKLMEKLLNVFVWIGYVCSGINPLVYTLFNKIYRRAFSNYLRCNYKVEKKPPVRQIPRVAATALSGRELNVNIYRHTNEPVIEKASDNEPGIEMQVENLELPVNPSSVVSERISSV", "conditions": "not given", "units": {"EC50": "µM"}, "values": [
      {"compound": "COc1ccc2occc2c1[C@H]1C[C@@H]1CN", "EC50": 0.0016},
      {"compound": "COc1ccc2c(c1[C@@H]1C[C@H]1CN)CCO2", "EC50": 0.019},
      {"compound": "CCOc1ccc2c(c1[C@H]1C[C@@H]1CN)CCO2", "EC50": 0.0027},
      {"compound": "CC(C)Oc1ccc2occc2c1[C@H]1C[C@@H]1CN", "EC50": 0.0062}
    ]},
    {"biological_target": "T1, 5-hydroxytryptamine receptor 2B", "conditions": "not given", "values": [
      {"compound": "COc1ccc2occc2c1[C@H]1C[C@@H]1CN", "EC50": "0.111 µM"},
      {"compound": "COc1ccc2c(c1[C@@H]1C[C@H]1CN)CCO2", "EC50": "0.279 µM"},
      {"compound": "CCOc1ccc2c(c1[C@H]1C[C@@H]1CN)CCO2", "EC50": "0.0589 µM and 0.054 µM"},
      {"compound": "CC(C)Oc1ccc2occc2c1[C@H]1C[C@@H]1CN", "EC50": "0.174 µM"}
    ]},
    {"biological_target": "T4, 5-hydroxytryptamine receptor 2C (Homo sapiens) (UniProt P28335)", "T4 sequence (whole entry)": "T3 sequence (P28335 whole entry)", "experiment": "Agonist activity at human 5-HT2C receptor expressed in human Flp-In-293 cells assessed as induction of calcium flux incubated for 1 hr by Fluo-4 direct dye based FLIPR assay relative to 5-HT", "assay_type": "functional, cell-based", "conditions": "filed as agonist", "units": {"Emax": "%"}, "values": [
      {"compound": "COc1ccc2occc2c1[C@H]1C[C@@H]1CN", "Emax": 93},
      {"compound": "COc1ccc2c(c1[C@@H]1C[C@H]1CN)CCO2", "Emax": 102},
      {"compound": "CCOc1ccc2c(c1[C@H]1C[C@@H]1CN)CCO2", "Emax": 106},
      {"compound": "CC(C)Oc1ccc2occc2c1[C@H]1C[C@@H]1CN", "Emax": 99}
    ]},
    {"biological_target": "T4, 5-hydroxytryptamine receptor 2C (Homo sapiens)", "experiment": "Agonist activity at human 5-HT2C receptor expressed in human Flp-In-293 cells assessed as induction of calcium flux by measuring log (Emax/EC50) incubated for 1 hr by Fluo-4 direct dye based FLIPR assay", "assay_type": "functional, cell-based", "conditions": "not given", "values": [
      {"compound": "COc1ccc2occc2c1[C@H]1C[C@@H]1CN", "log(ratio)": 8.76},
      {"compound": "COc1ccc2c(c1[C@@H]1C[C@H]1CN)CCO2", "log(ratio)": 7.73},
      {"compound": "CCOc1ccc2c(c1[C@H]1C[C@@H]1CN)CCO2", "log(ratio)": 8.59},
      {"compound": "CC(C)Oc1ccc2occc2c1[C@H]1C[C@@H]1CN", "log(ratio)": 8.2}
    ]},
    {"biological_target": "T1, 5-hydroxytryptamine receptor 2B", "experiment": "Agonist activity at human 5-HT2B receptor expressed in human Flp-In-293 cells assessed as induction of calcium flux by measuring log(Emax/EC50) incubated for 1 hr by Fluo-4 direct dye based FLIPR assay", "assay_type": "functional, cell-based", "conditions": "not given", "values": [
      {"compound": "COc1ccc2occc2c1[C@H]1C[C@@H]1CN", "log(ratio)": 6.76},
      {"compound": "COc1ccc2c(c1[C@@H]1C[C@H]1CN)CCO2", "log(ratio)": 6.21},
      {"compound": "CCOc1ccc2c(c1[C@H]1C[C@@H]1CN)CCO2", "log(ratio)": 7.03},
      {"compound": "CC(C)Oc1ccc2occc2c1[C@H]1C[C@@H]1CN", "log(ratio)": 6.35}
    ]},
    {"biological_target": "T2, 5-hydroxytryptamine receptor 2A", "experiment": "Agonist activity at human 5-HT2A receptor expressed in human Flp-In-293 cells assessed as induction of calcium flux by measuring log(Emax/EC50) incubated for 1 hr by Fluo-4 direct dye based FLIPR assay", "assay_type": "functional, cell-based", "conditions": "not given", "values": [
      {"compound": "COc1ccc2occc2c1[C@H]1C[C@@H]1CN", "log(ratio)": 7.37},
      {"compound": "COc1ccc2c(c1[C@@H]1C[C@H]1CN)CCO2", "log(ratio)": 6.35},
      {"compound": "CCOc1ccc2c(c1[C@H]1C[C@@H]1CN)CCO2", "log(ratio)": 6.86},
      {"compound": "CC(C)Oc1ccc2occc2c1[C@H]1C[C@@H]1CN", "log(ratio)": 6.42}
    ]}
  ]
}
